According to ChEMBL document CHEMBL1201862, “PubChem BioAssay data set” (2004):
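Cultured in 96-well plates, cells were exposed to test compound for 48 hours across five concentrations. GI50 = concentration required for 50% inhibition of growth.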 The source made the active and inactive calls. No stated cut-off is given here; in the data, active = GI50 up to about 1.1 µM and inactive = higher. Square brackets hold non-standard residues; d marks the D form. Peptide text beside a SMILES is read from it. * marks the point of attachment. Phe(4-NO2) = N[CH](Cc1ccc([N+](=O)[O-])cc1)C(=O)O; Boc = CC(C)(C)OC(=O)*

How the values were obtained:
Experiment in all cases: NCI tumour cell line growth inhibition, 48 h
786-0 = tested on: 786-0
K562 = tested on: K562
SK-OV-3 = tested on: SK-OV-3
SF-268 = tested on: SF-268
SF-295 = tested on: SF-295
UACC-62 = tested on: UACC-62
UACC-257 = tested on: UACC-257
T47D = tested on: T47D
Hs-578T = tested on: Hs-578T
CAKI-1 = tested on: CAKI-1
MDA-MB-231 = tested on: MDA-MB-231
SF-539 = tested on: SF-539
RPMI-8226 = tested on: RPMI-8226
HCT-15 = tested on: HCT-15
UO-31 = tested on: UO-31
ACHN = tested on: ACHN
RXF 393 = tested on: RXF 393
HOP-92 = tested on: HOP-92
MDA-MB-435 = tested on: MDA-MB-435
MOLT-4 = tested on: MOLT-4

Structure (SMILES)	GI50 (786-0)	GI50 (K562)	GI50 (SK-OV-3)	GI50 (SF-268)	GI50 (SF-295)	GI50 (UACC-62)	GI50 (UACC-257)	GI50 (T47D)	GI50 (Hs-578T)	GI50 (CAKI-1)	GI50 (MDA-MB-231)	GI50 (SF-539)	GI50 (RPMI-8226)	GI50 (HCT-15)	GI50 (UO-31)	GI50 (ACHN)	GI50 (RXF 393)	GI50 (HOP-92)	GI50 (MDA-MB-435)	GI50 (MOLT-4)
N/N=C1\C(OC(=O)Nc2ccccc2)=Nc2ccccc21	16.4 µM (inactive)	40.3 µM (inactive)	19.8 µM (inactive)	36.1 µM (inactive)	14 µM (inactive)	14.8 µM (inactive)	29.7 µM (inactive)	10.9 µM (inactive)	36.2 µM (inactive)	14.9 µM (inactive)	18.6 µM (inactive)	15.6 µM (inactive)	10.3 µM (inactive)	26.5 µM	12.7 µM (inactive)	15.1 µM (inactive)	15.4 µM (inactive)	15.2 µM (inactive)	14.4 µM (inactive)	–
Cc1cccc(/N=N/c2c(C)nn(C(=O)CC(=O)Nc3ccccc3)c2C)c1	> 100 µM (inactive)	–	> 100 µM (inactive)	> 100 µM (inactive)	> 100 µM (inactive)	> 100 µM (inactive)	> 10 µM (inactive)	> 100 µM (inactive)	> 100 µM (inactive)	> 100 µM (inactive)	> 100 µM (inactive)	> 100 µM (inactive)	> 100 µM (inactive)	> 100 µM	> 100 µM (inactive)	> 100 µM (inactive)	> 100 µM (inactive)	> 100 µM (inactive)	> 100 µM (inactive)	> 100 µM (inactive)
C=C1c2cc3c(cc2CC12Cc1cc4c(cc1C2=O)CCC4)CCC3 (stereo not drawn)	> 100 µM (inactive)	> 100 µM (inactive)	> 100 µM (inactive)	> 100 µM (inactive)	> 100 µM (inactive)	–	> 100 µM (inactive)	> 100 µM (inactive)	> 100 µM (inactive)	> 100 µM (inactive)	> 100 µM (inactive)	> 100 µM (inactive)	> 100 µM (inactive)	> 100 µM	> 100 µM (inactive)	> 100 µM (inactive)	> 100 µM (inactive)	> 100 µM (inactive)	> 100 µM (inactive)	> 100 µM (inactive)
COc1ccc(NC(C)=O)c(C(O)CCNC(C)=O)c1 (stereo not drawn)	> 100 µM (inactive)	–	> 100 µM (inactive)	> 100 µM (inactive)	> 100 µM (inactive)	> 100 µM (inactive)	> 100 µM (inactive)	> 100 µM (inactive)	> 100 µM (inactive)	> 100 µM (inactive)	> 100 µM (inactive)	> 100 µM (inactive)	> 100 µM (inactive)	> 100 µM	> 100 µM (inactive)	> 100 µM (inactive)	> 100 µM (inactive)	> 100 µM (inactive)	> 100 µM (inactive)	> 100 µM (inactive)
CCOC(=O)C(=CNC(=S)N/N=C1\C(=O)Nc2ccccc21)C(=O)OCC	> 100 µM (inactive)	> 100 µM (inactive)	> 100 µM (inactive)	43.8 µM (inactive)	> 100 µM (inactive)	> 100 µM (inactive)	> 100 µM (inactive)	> 100 µM (inactive)	48.2 µM (inactive)	21.1 µM (inactive)	> 100 µM (inactive)	> 100 µM (inactive)	> 100 µM (inactive)	–	29 µM (inactive)	> 100 µM (inactive)	> 100 µM (inactive)	82 µM (inactive)	> 100 µM (inactive)	84.7 µM (inactive)
CNC(=O)CCC(NC(=O)OC(C)(C)C)C(=O)NC(Cc1ccc([N+](=O)[O-])cc1)C(=O)NCC(=O)NC (stereo not drawn) (Boc-Glu(NHMe)-[Phe(4-NO2)]-Gly-NHMe; configuration not given here)	> 100 µM (inactive)	> 100 µM (inactive)	> 100 µM (inactive)	> 100 µM (inactive)	> 100 µM (inactive)	> 100 µM (inactive)	–	> 100 µM (inactive)	> 100 µM (inactive)	> 100 µM (inactive)	> 100 µM (inactive)	> 100 µM (inactive)	> 100 µM (inactive)	> 100 µM	> 100 µM (inactive)	> 100 µM (inactive)	> 100 µM (inactive)	> 100 µM (inactive)	> 100 µM (inactive)	> 100 µM (inactive)
NCCO/C=C/C(N)C(=O)O (stereo not drawn) [AMINOETHOXYVINYLGLYCINE]	> 100 µM (inactive)	> 100 µM (inactive)	> 100 µM (inactive)	> 100 µM (inactive)	> 100 µM (inactive)	> 100 µM (inactive)	> 100 µM (inactive)	> 100 µM (inactive)	> 100 µM (inactive)	> 100 µM (inactive)	> 100 µM (inactive)	> 100 µM (inactive)	> 100 µM (inactive)	> 100 µM	> 100 µM (inactive)	> 100 µM (inactive)	> 100 µM (inactive)	> 100 µM (inactive)	> 100 µM (inactive)	–
